# Results reported in patent publication US11427588B2, “Compositions and methods for treating neurodegenerative diseases and cardiomyopathy” (THE REGENTS OF THE UNIVERSITY OF CALIFORNIA, priority 2013, dated 2022).
# Entries after “also recorded” stand apart in the source; their conditions may differ. Read-outs that look alike come from different tables or passages of the source.
# Experiments:
# HeLa cells = experiment: Parkin recruitment to depolarized mitochondria in HeLa cells, PINK1 form not stated; format: cell-based
# Protocol: Parkin phosphorylation and mitochondrial translocation assay: HeLa cells were grown in DMEM supplemented with 10% FBS. Log phase cells were plated in 24 well plates with glass coverslips (Mattek) pretreated with fibronectin. Cells were pretreated with 50 μM of the indicated compound, followed by transfection with MitoGFP, mCherry Parkin, and full length PINK1FLAG3 in a 1:4:2 ratio using Fugene 6 (Promega). Fields of cells were selected by expression of MitoGFP (6 fields/well-3 wells/condition) and imaged at five-minute intervals following depolarization with 5 μM CCCP. Quantification was performed according to published protocols^3 and by creation of a Matlab based script.
# Our ability to enhance PINK1 activity in-vitro using KTP led us to investigate means by which to achieve enhanced activity in cells expressing PINK1. […] We treated cells with either kinetin or adenine (FIG. 2A) and measured Parkin localization following mitochondrial depolarization with CCCP (FIG. 2B). HeLa cells, which have low levels of endogenous PINK1 and PARKIN, were transfected with wildtype or PINK1^G309D, mCherryParkin, and mitoGFP. After 48 hours of incubation with 25 μM adenine, kinetin or equivalent DMSO, we imaged CCCP-mediated depolarization of mitochondria (FIGS. 2C, 2D) and calculated the percentage of GFP labelled mitochondria with mCherryParkin associated (FIG. 2E). […]
# rat hippocampal neurons = experiment: Mitochondrial motility assay in axons; format: cell-based; settings: 50 μM
# From the text: (§1) Mitochondrial motility assay: Primary hippocampal neuronal cultures were co-transfected with mitochondrial targeted GFP (mitoGFP) and mCherry-tagged synaptophysin (mCherrySynaptophysin) to allow for the live identification of mitochondria in axons.
# (§2) To test if kinetin decreases motility we examined the mobility of axonal mitochondria in hippocampal neurons. Primary hippocampal neuronal cultures were co-transfected with mitoGFP and mCherry-tagged Synaptophysin (mCherrySynaptophysin) to allow for the live identification of mitochondria in axons. […] To test the PINK1 dependency of this process, we treated control mouse C57 (PINK1 wildtype) and PINK1 knockout derived hippocampal neurons with kinetin or 9MK and imaged their mitochondria.
# [1] = test system: C57 (PINK1 wildtype) derived hippocampal neurons; experiment: Mitochondrial motility assay in axons; format: cell-based, mouse
# From the text: as §1, §2
# [2] = test system: PINK1 knockout derived hippocampal neurons; experiment: Mitochondrial motility assay in axons; format: cell-based, mouse
# From the text: as §1, §2
# Parkin and Bcl-xL = experiment: Phosphorylation level of Parkin and Bcl-xL in neuronal cell lines; format: cell-based
# From the text: (§3) Kinetin mediated PINK1 activity amplification was characterized using a variety of cell lines and primary cells. The HL-1 cell line, an established cardiomyocyte cell line that retains characteristic properties of differentiated cardiac tissue (Claycomb et al., 1998) as well as freshly isolated cardiomyocytes from PINK1wt or PINK1−/− mice. Infected HL-1 cells with a lentivirus expressing shRNA targeting PINK1, were developed to generate a PINK1 knockdown control. To analyze the amplification of PINK1 kinase activity we analyzed the phosphorylation level of Bcl-xL, Mfn2, and Parkin following treatment of PINK1wt and PINK1 knockdown or −/− cell lines with DMSO or 25 μM adenine, kinetin or 9-methyl kinetin (9MK negative control) and fCCCP for three to twenty-four hours following published protocols (Arena et al., 2013; Chen and Dorn, 2013; Kondapalli et al., 2012). […] Accordingly, PINK1wt expressing cells see an increase in PINK1 dependent phosphorylation, but not in those cells where PINK1 has been depleted.
# [3] = test system: PINK1wt HL-1 cells or cardiomyocytes derived from PINK1wt mice; experiment: Apoptosis of cardiomyocytes after mitochondrial toxins (caspase 3/7, TUNEL, Annexin V); format: cell-based; settings: 25 μM, versus control compounds or PINK1 knockdown or −/− cells
# From the text: as §3
# The amount of early apoptosis was measured using caspase 3/7 cleavage activity and later stage apoptosis by measuring the number of Terminal deoxynucleotidyl transferase dUTP nick end labeling (TUNEL) positive cells and Annexin V binding by FACS analysis following treatment with mitochondrial toxins. […]
# PINK1wt mice = experiment: Heart health and performance in mice treated from birth; format: in vivo
# Protocol: PINK1 expression is protective in several mouse models of heart failure. PINK1wt expression will block pathological hypertrophy, increase heart fractional shortening, and prevent ischemia induced death of heart tissue. To assay the effect of kinetin PINK1 wt or PINK1−/− mice were treated with vehicle, adenine or kinetin from birth following published protocols for administration of kinetin (Hims et al., 2007; Shetty et al., 2011). The mice were sacrificed and whole hearts analyzed, and isolated cardiomyocytes from mice at appropriate time periods (e.g. 2 and 6 months). O2 consumption, mitochondrial integrity (mtDNA abundance, mitochondrial capacity and JC-1 fluorescence) caspase 3/7 cleavage activity and TUNEL staining were measured to assess the health of these tissues. According to published results (Billia et al., 2011; Chen and Dorn, 2013), PINK1 activity is essential for normal 02 consumption and maintenance of mitochondrial integrity. Decreased 02 consumption and mitochondrial integrity in PINK1−/− mice was compared to PINK1wt mice. […] Additionally, caspase 3/7 cleavage activity and TUNEL staining of the left ventricle were increased in PINK1−/− mice derived cardiomyocytes compared to PINK1wt.
# In addition to these analyses we analyzed the performance of the heart in whole animals. We utilized the same procedure as above and treated either PINK1wt or PINK1−/− mice with vehicle, adenine or kinetin from birth following published protocols for administration of kinetin (Hims et al., 2007; Shetty et al., 2011). […] These characteristics of pathological hypertrophy indicate heart failure in the PINK1−/− mice will not increase as dramatically in PINK1wt mice (Billia et al., 2011). […] These experiments indicate that amplification of PINK1 activity by treatment with kinetin can block age-induced loss in heart function.
smiles,measurement,setting,value
c1coc(CNc2ncnc3[nH]cnc23)c1 [kinetin],Parkin recruitment to CCCP depolarized mitochondria,HeLa cells,accelerates
same,mitochondrial movement / motility,rat hippocampal neurons; 48 hours pre-treatment,potently and specifically inhibited
same,velocity of mitochondria that remain in motion,"rat hippocampal neurons; 48 hours, retrograde direction",slows; also recorded: decrease in the velocity of mitochondria in the retrograde direction
same,mitochondrial motility,[1],decrease in motility
same,mitochondrial motility,[2],no change in motility
same,mitochondrial motility,[2]; listed as Kinetin,no effect on mitochondrial motility
same,phosphorylation level of Parkin and Bcl-xL,Parkin and Bcl-xL,significant increase
same,apoptosis levels,[3],significantly lower levels
same,age induced pathological hypertrophy,"PINK1wt mice; HBW ratio, cross sectional area, extracellular matrix",reduces this age induced pathological hypertrophy
same,fractional shortening,"PINK1wt mice; six month old, echocardiography",still higher fractional shortening
same,O2 consumption and mitochondrial integrity,PINK1wt mice; treated from birth,Improved values
same,TUNEL staining of the left ventricle,PINK1wt mice; treated from birth,further reduced TUNEL staining
